The RepoRT retention time repository

Test: Waters ACQUITY UPLC BEH C18, 100 × 2.1 mm, 1.7 µm, 40 °C, 0.3 to 0.4 mL/min, estimated dead time 0.63 min; A: water + 0.1% formic acid; B: methanol + 0.1% formic acid; gradient (min/%B) 0/0.5 0.1/0.5 10/80 10.1/99.5 12/99.5
Details: stereoisomer not certain

Row | LC retention time | Compound
1 | 4.24 min | CC1CNC2(OC3CC4C5CCC6CC(OC7OC(CO)C(OC8OC(CO)C(O)C(O)C8OC8OC(CO)C(O)C(O)C8O)C(O)C7O)CCC6(C)C5CCC4(C)C3C2C)C(O)C1 (stereo not drawn)
2 | 4.85 min | O=C(CCc1ccccc1)c1c(O)cc(O)cc1OC1OC(CO)C(O)C(O)C1O (stereo not drawn)
3 | 2.02 min | CC(C)CC(N)C(=O)NC(C)C(=O)O (stereo not drawn)
4 | 4.96 min | COc1cc2c(cc1OC)-c1cc3ccc(OC)c(OC)c3c[n+]1CC2
5 | 3.4 min | CC1OC(OCC2OC(Oc3c(-c4ccc(O)cc4)oc4cc(OC5OC(C)C(O)C(O)C5O)cc(O)c4c3=O)C(O)C(O)C2O)C(O)C(O)C1O (stereo not drawn)
6 | 9.24 min | CCCCCC=CCC=CCCCCCCCC(=O)OCC(O)COP(=O)(O)OCCN (stereo not drawn)
7 | 2.36 min | NC(CCC(=O)NC(Cc1ccc(O)cc1)C(=O)O)C(=O)O (stereo not drawn)
8 | 3.1 min | O=c1cc(-c2ccc(O)c(O)c2)oc2c(C3OC(CO)C(O)C(O)C3O)c(O)c(C3OC(CO)C(O)C(O)C3O)c(O)c12 (stereo not drawn)
9 | 2.55 min | CCC(C)C(N)C(=O)NC(C(=O)O)C(C)C (stereo not drawn)
10 | 4.51 min | O=c1c(O)c(-c2ccc(OC3OC(CO)C(O)C(O)C3O)c(O)c2)oc2cc(O)cc(O)c12 (stereo not drawn)
11 | 6.2 min | COc1cc(C(O)C(CO)Oc2c(OC)cc(-c3cc(=O)c4c(O)cc(O)cc4o3)cc2OC)ccc1O (stereo not drawn)
12 | 7.39 min | COc1ccc(-c2cc(=O)c3c(OC)cc(OC)c(-c4cc(-c5cc(=O)c6c(OC)cc(OC)cc6o5)ccc4OC)c3o2)cc1
13 | 7.01 min | CC1(C)CCC2(C(=O)O)CCC3(C)C(=CCC4C5(C)CC(O)C(OC6OC(CO)C(OC7OC(CO)C(O)C(O)C7O)C(O)C6O)C(C)(CO)C5CCC43C)C2C1 (stereo not drawn)
14 | 4.34 min | O=C(O)C1OC(Oc2c(-c3ccc(O)cc3)oc3cc(O)cc(O)c3c2=O)C(O)C(O)C1O (stereo not drawn)
15 | 2.76 min | Cc1c(N)c(=O)n(-c2ccccc2)n1C
16 | 4.88 min | CC1CCC2(C(=O)OC3OC(COC4OC(CO)C(OC5OC(C)C(O)C(O)C5O)C(O)C4O)C(O)C(O)C3O)CCC3(C)C(=CCC4C5(C)CC(O)C(O)C(C)(CO)C5C(O)CC43C)C2C1C (stereo not drawn)
17 | 4.16 min | CS(=O)CCCCCCCC#N (stereo not drawn)
18 | 6.06 min | COc1ccc(-c2coc3cc(OC4OC(COC(=O)CC(=O)O)C(O)C(O)C4O)cc(O)c3c2=O)cc1 (stereo not drawn)
19 | 2.75 min | CCN(CC)CCOC(=O)c1ccc(N)cc1
20 | 5.21 min | CC1CCC2(C(=O)OC3OC(COC4OC(CO)C(OC5OC(C)C(O)C(O)C5O)C(O)C4O)C(O)C(O)C3O)CCC3(C)C(=CCC4C5(C)CC(O)C(O)C(C)(CO)C5CCC43C)C2C1C (stereo not drawn)
21 | 4.5 min | CCC12CCCN3CCc4c(n(c5ccccc45)C(O)(C(=O)OC)C1)C32 (stereo not drawn)
22 | 3.7 min | NCCCCNC(=O)C=Cc1ccccc1
23 | 4.13 min | O=c1cc(-c2ccc(O)cc2)oc2cc(OC3OC(CO)C(O)C(O)C3O)c(O)c(O)c12 (stereo not drawn)

Row | LC retention time | Compound
24 | 4.71 min | O=c1cc(-c2ccc(O)cc2)oc2cc(OC3OC(CO)C(O)C(O)C3OC3OCC(O)(CO)C3O)cc(O)c12 (stereo not drawn)
25 | 3.81 min | O=C(C=Cc1ccc(O)cc1)OCC1OC(OC2C(c3c(O)cc4oc(-c5ccc(O)c(O)c5)cc(=O)c4c3O)OC(CO)C(O)C2O)C(O)C(O)C1O (stereo not drawn)
26 | 2.86 min | COc1c(O)cc2c(c1O)C1OC(CO)C(O)C(O)C1OC2=O (stereo not drawn)
27 | 3.41 min | COc1cc2c3cc1Oc1cc(ccc1O)CC1c4c(cc(OC)c(O)c4Oc4ccc(cc4)CC3N(C)CC2)CC[N+]1(C)C (stereo not drawn)
28 | 4.15 min | CC(CCC1(O)OC2CC3C4CC=C5CC(O)CC(OC6OCC(O)C(OC7OCC(O)C(O)C7O)C6OC6OC(C)C(O)C(O)C6O)C5(C)C4CCC3(C)C2C1C)COC1OC(CO)C(O)C(O)C1O (stereo not drawn)
29 | 4.18 min | O=c1cc(-c2ccc(O)cc2)oc2cc(OC3OC(CO)C(O)C(O)C3O)cc(O)c12 (stereo not drawn)
30 | 3.84 min | CC(=O)OC1CC(COC2OC(CO)C(O)C(O)C2OC2OC(CO)C(O)C(O)C2O)CNC12OC1CC3C4CCC5CC(OC6OC(CO)C(OC7OC(CO)C(OC8OCC(O)C(O)C8O)C(O)C7OC7OC(CO)C(O)C(O)C7O)C(O)C6O)CCC5(C)C4CCC3(C)C1C2C (stereo not drawn)
31 | 4.34 min | CC1OC(OC2C(Oc3cc(O)c4c(=O)cc(-c5ccc(O)cc5)oc4c3)OC(CO)C(O)C2O)C(O)C(O)C1O (stereo not drawn)
32 | 4.61 min | CC1OC(OC2C(c3c(O)cc(O)c4c(=O)cc(-c5ccc(O)cc5)oc34)OC(CO)C(O)C2O)C(O)C(O)C1O (stereo not drawn)
33 | 2.57 min | CN1CCC23c4ccccc4NC1C21CCN(C)C3Nc2ccccc21
34 | 6.26 min | CC(=O)OCC1OC(OC2C(O)COC(OC3C(O)C(C)(C)CC4C5=CCC6C7(C)CCC(OC8OC(C(=O)O)C(O)C(O)C8OC8OC(CO)C(O)C(O)C8OC8OC(CO)C(O)C(O)C8O)C(C)(CO)C7CCC6(C)C5(C)CCC43C)C2O)C(OC(C)=O)C(OC(C)=O)C1OC(C)=O (stereo not drawn)
35 | 4.17 min | O=c1c(OC2OCC(O)C(O)C2O)c(-c2ccc(O)c(O)c2)oc2cc(O)cc(O)c12 (stereo not drawn)
36 | 3.9 min | O=c1c(OC2OCC(O)C(O)C2O)c(-c2cc(O)c(O)c(O)c2)oc2cc(O)cc(O)c12 (stereo not drawn)
37 | 9.63 min | CC(C)=CCC=C(C)C1CCC2(C)C1C(O)CC1C3(C)CCC(OC4OC(CO)C(O)C(O)C4OC4OC(CO)C(O)C(O)C4O)C(C)(C)C3CCC12C (stereo not drawn)
38 | 3.96 min | COc1cc(-c2cc(=O)c3c(O)cc(OC4OC(C(=O)O)C(O)C(O)C4OC4OC(C(=O)O)C(O)C(O)C4O)cc3o2)cc(OC)c1O (stereo not drawn)
39 | 4.48 min | CC(CCC1(O)OC2CC3C4CC=C5CC(O)CC(OC6OCC(O)C(O)C6OC6OC(C)C(O)C(O)C6O)C5(C)C4CCC3(C)C2C1C)COC1OC(CO)C(O)C(O)C1O (stereo not drawn)
40 | 3.65 min | CC1OC(OCC2OC(Oc3c(-c4ccc(O)c(O)c4)oc4cc(O)cc(O)c4c3=O)C(OC3OCC(O)C(O)C3O)C(O)C2O)C(O)C(O)C1O (stereo not drawn)
41 | 3.09 min | CC1OC(Oc2cc(O)c3c(=O)c(OC4OC(CO)C(O)C(O)C4OC4OC(C)C(O)C(O)C4O)c(-c4ccc(O)c(O)c4)oc3c2)C(O)C(O)C1O (stereo not drawn)
42 | 2 min | O=S(=O)(O)ON=C(Cc1ccc(O)cc1)SC1OC(CO)C(O)C(O)C1O (stereo not drawn)
43 | 1.74 min | OCC1OC(OCC2OC(O)(CO)C(O)C2O)C(O)C(O)C1O (stereo not drawn)
44 | 6.18 min | CC1(C)CCC2(C(=O)OC3OC(CO)C(O)C(O)C3O)CCC3(C)C(=CCC4C5(C)CCC(OC6OC(C(=O)O)C(O)C(O)C6OC6OC(CO)C(O)C(O)C6O)C(C)(C)C5CCC43C)C2C1 (stereo not drawn)
45 | 9.1 min | CCC=CCC=CC=CC(O)CCCCCCCC(=O)O (stereo not drawn)
46 | 6.18 min | O=C1OCC(Cc2cccc(O)c2)C1Cc1cccc(O)c1 (stereo not drawn)

Row | Compound | LC retention time
47 | COc1cc(C(=O)OC2CC3CCC(C2)N3)ccc1O (stereo not drawn) | 3.27 min
48 | CN1CCc2cc3c(c4c2C1Cc1ccccc1-4)OCO3 (stereo not drawn) | 4.89 min
49 | CC=C1CN2CCC34C(=C(C=O)C1CC23)Nc1c(O)cccc14 (stereo not drawn) | 3.38 min
50 | CCCCCC=CCC=CCCCCCCCC(=O)OCC(O)COP(=O)([O-])OCC[N+](C)(C)C (stereo not drawn) | 9.31 min
51 | CC1C(=O)OC2C(O)C34C5OC(=O)C3(OC3OC(=O)C(O)C34C(C(C)(C)C)C5O)C12O (stereo not drawn) | 4.33 min
52 | CS(=O)CCCCN=C=S (stereo not drawn) | 3.69 min
53 | CS(=O)C=CCCN=C=S (stereo not drawn) | 3.77 min
